Measured values from ChEMBL document CHEMBL1201862, “PubChem BioAssay data set” (2004).
Active and inactive are the calls of the source.

Columns and labels:
[1] = intracellular Trypanosoma cruzi inhibitors in host cells – cell-based, plate reader, cherry-pick samples, set 3, dose response (AID 651818); type: functional;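 also: compounds incubated with infected cells for about four days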
[2] = cells; type: functional, cell-based
[3] = target: T1, Nuclear receptor subfamily 0 group B member 1 (Homo sapiens, UniProt P51843); type: functional, cell-based;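 also: HEK293T cells transfected with SF-1 and DAX-1 plus StAR promoter luciferase reporter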
T1 sequence (P51843 whole entry): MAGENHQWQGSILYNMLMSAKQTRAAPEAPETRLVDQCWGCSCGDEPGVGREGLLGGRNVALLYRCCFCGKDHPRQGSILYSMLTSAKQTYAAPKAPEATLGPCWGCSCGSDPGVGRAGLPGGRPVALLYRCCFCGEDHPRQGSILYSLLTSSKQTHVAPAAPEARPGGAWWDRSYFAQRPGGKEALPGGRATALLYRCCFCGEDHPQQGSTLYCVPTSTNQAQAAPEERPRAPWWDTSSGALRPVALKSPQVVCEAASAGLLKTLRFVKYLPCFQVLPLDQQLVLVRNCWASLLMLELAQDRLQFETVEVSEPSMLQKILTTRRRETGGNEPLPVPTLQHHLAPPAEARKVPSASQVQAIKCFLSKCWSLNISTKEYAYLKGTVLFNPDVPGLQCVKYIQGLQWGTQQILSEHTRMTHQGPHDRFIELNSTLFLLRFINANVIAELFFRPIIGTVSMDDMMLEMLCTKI

[4] = system: Vero; test: viability loss in Vero cells – cell-based, plate reader, cherry-pick samples, cytotoxicity control, dose response (AID 687020); type: functional; conditions: Chlorocebus sabaeus
[5] = target: T2, Aminopeptidase N (Plasmodium falciparum FcB1/Columbia, UniProt O96935); test: malaria alanyl aminopeptidase activity blockers – biochemical, fluorogenic H-Leu-NHMec substrate, 1536-well (AID 1445); parameters: species or system Plasmodium falciparum 3D7, 3D7
T2 sequence (O96935 whole entry): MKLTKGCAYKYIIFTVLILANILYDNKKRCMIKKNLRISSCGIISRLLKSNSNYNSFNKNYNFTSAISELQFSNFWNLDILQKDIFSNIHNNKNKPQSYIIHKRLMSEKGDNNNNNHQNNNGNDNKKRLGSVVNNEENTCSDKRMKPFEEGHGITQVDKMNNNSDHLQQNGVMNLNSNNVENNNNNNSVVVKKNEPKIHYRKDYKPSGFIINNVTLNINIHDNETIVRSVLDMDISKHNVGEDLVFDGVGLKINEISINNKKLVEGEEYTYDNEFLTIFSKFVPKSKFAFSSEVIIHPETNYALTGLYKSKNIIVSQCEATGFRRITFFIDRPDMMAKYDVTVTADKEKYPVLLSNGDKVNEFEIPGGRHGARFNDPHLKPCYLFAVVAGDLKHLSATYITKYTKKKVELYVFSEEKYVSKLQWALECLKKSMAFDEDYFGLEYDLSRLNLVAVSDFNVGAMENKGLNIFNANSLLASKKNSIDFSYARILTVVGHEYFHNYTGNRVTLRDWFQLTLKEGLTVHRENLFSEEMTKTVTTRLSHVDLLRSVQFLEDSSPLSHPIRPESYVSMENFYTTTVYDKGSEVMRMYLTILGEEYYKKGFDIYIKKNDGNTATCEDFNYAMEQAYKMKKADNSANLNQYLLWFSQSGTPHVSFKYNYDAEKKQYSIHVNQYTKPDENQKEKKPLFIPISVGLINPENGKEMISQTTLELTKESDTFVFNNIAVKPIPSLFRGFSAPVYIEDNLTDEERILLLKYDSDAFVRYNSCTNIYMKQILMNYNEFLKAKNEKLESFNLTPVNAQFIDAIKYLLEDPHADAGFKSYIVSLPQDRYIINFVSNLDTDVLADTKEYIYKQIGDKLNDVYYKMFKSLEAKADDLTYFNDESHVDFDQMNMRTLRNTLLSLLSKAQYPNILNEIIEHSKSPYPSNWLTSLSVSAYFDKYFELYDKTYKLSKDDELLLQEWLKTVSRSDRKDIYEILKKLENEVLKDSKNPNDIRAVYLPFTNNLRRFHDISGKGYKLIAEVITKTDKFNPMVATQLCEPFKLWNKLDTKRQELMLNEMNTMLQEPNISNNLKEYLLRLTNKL

[6] = target: Genome polyprotein (dengue virus type 2, UniProt P29990); test: flavivirus cap methylation enzyme inhibition – biochemical, confirmation dose response, primary screen (AID 588689); type: functional
[7] = target: T3, Small ubiquitin-related modifier 1 (Homo sapiens, UniProt P63165); test: SUMO1 protein interaction blockers, potency – biochemical, fluorescence polarization, uHTS hits, dose response (AID 624382); type: functional; conditions: read-out: IC50_Mean
[8] = target: T3, Small ubiquitin-related modifier 1; test: SUMO1 protein-protein binding blockers, potency – biochemical, FRET, dose response (AID 624383); type: functional; conditions: read-out: IC50_Mean
[9] = target: T4, Caspase-6 (Homo sapiens, UniProt P55212); test: inhibition of CASP6 peptide cleavage – biochemical, VEID-R110 fluorescence, cherry-pick, dose response (AID 720632)
T4 sequence (P55212 whole entry): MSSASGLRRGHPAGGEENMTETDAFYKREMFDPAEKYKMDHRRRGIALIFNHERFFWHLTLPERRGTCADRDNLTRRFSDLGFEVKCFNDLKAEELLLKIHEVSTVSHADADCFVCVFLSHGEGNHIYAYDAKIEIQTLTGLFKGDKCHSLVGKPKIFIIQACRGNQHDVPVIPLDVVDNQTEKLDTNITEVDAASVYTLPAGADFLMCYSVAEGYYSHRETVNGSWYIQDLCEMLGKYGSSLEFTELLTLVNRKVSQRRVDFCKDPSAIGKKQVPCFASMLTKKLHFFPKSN

[10] = target: Caspase-7 (Homo sapiens, UniProt P55210); test: caspase-7 enzyme inhibition, selectivity check – biochemical, DEVD-R110 fluorescence, cherry-pick, selectivity assay for caspase-6 inhibitor project, dose response (AID 743295); type: functional
[11] = target: Caspase-8 (Homo sapiens, UniProt Q14790); test: inhibitors of purified CASP8 protease – biochemical, Z-IETD-R110 fluorescence, cherry-picked samples, selectivity assay for caspase-6 inhibitor project, dose response (AID 743294)
[12] = target: Hepatocyte nuclear factor 4-alpha (Homo sapiens, UniProt P41235); type: functional, cell-based;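 also: biochemical luminescence-based dose-response counterscreen measuring inhibition of HNF4 dimerization, run alongside a screen for blockers of ABHD5–perilipin-5 interaction; split luciferase complementation of HNF4 fusion proteins in cell lysate measuring dimerization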
[13] = target: T5, Low molecular weight phosphotyrosine protein phosphatase (Homo sapiens, UniProt P24666); type: functional; conditions: read-out: IC50_Mean;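 also: Dose-response confirmation assay measuring inhibition of LMPTP enzyme activity by fluorescence intensity read-out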
T5 sequence (P24666 whole entry): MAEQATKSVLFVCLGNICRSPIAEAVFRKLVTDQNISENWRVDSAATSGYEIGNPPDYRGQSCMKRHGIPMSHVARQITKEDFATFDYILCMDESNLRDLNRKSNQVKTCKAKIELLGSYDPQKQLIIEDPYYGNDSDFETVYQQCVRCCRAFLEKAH

[14] = target: Protein Wnt-3a (Mus musculus, UniProt P27467); test: antagonism of Wnt3a pathway luciferase reporter – Wnt-LIGHT cells, luminescence, selectivity assay for Gli-SUFU antagonist project, dose response (AID 651570); type: functional; conditions: read-out: IC50_Mean;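 also: Wnt-LIGHT reporter cells stimulated with conditioned medium from Wnt3a-producing cells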
[15] = target: Arf-GAP with SH3 domain, ANK repeat and PH domain-containing protein 1 (Homo sapiens, UniProt Q9ULH1); type: functional;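 also: biochemical fluorescence polarization dose–response screen measuring inhibition of ASAP1; ASAP1 GAP domain stimulating GTP hydrolysis by truncated human ARF1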
[16] = target: T6, Interleukin-8 (Homo sapiens, UniProt P10145); test: Dose Response confirmation of uHTS small molecule hits for cystic fibrosis induced NFkb Inhibitors in a TNFa-induced IL8 counterscreen.; type: functional; conditions: read-out: IC50_Mean
T6 sequence (P10145 whole entry): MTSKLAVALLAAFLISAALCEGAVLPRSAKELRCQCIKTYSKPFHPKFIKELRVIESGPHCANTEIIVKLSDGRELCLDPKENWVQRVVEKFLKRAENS

[17] = target: T6, Interleukin-8; test: Dose Response confirmation of uHTS small molecule hits for cystic fibrosis induced NFkb Inhibitors in a PAF-induced IL8 counterscreen.; type: functional; conditions: read-out: IC50_Mean
[18] = HEK293 cell viability loss – plate reader, cherry-pick, cytotoxicity control, dose response (AID 651899); type: functional, cell-based
[19] = target: T7, Adenosylmethionine-8-amino-7-oxononanoate aminotransferase (Mycobacterium tuberculosis, UniProt P9WQ81); test: Mycobacterium tuberculosis BioA enzyme inhibitor Measured in Biochemical System Using Plate Reader - 2163-02_Inhibitor_Dose_CherryPick_Activity.; type: functional, Mycobacterium tuberculosis UT205
T7 sequence (P9WQ81 whole entry): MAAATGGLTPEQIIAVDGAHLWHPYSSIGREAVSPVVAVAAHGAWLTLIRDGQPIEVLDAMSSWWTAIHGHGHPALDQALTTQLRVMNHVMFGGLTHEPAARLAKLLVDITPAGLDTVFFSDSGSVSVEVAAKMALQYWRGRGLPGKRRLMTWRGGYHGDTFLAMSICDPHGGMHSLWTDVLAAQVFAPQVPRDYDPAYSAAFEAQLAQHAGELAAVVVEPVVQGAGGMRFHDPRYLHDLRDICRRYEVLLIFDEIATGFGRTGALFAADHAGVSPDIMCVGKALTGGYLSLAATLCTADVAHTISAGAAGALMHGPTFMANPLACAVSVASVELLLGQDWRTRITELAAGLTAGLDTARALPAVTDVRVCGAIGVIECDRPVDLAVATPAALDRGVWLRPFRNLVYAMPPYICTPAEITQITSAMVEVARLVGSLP

[20] = target: T8, ATP-dependent translocase ABCB1 (Homo sapiens, UniProt P08183); test: inhibition of BCRP-mediated JC-1 efflux – Ig-MXP3 cells, flow cytometry, set 2, dose response (AID 504566); type: functional; conditions: read-out: EC50_MICROM_;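 also: flow cytometry median green fluorescence of retained JC-1 dye; potency of efflux pump inhibition measured as rising substrate retention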
[21] = target: T8, ATP-dependent translocase ABCB1; test: P-gp JC-1 efflux blockade concentration-response – Jurkat-DNR cells, flow cytometry, set 2, dose response (AID 504569); type: functional; conditions: read-out: EC50_MICROM_;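 also: potency of pump inhibitors that raise cellular JC-1 green fluorescence up to the nicardipine level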
[22] = target: Beta-lactamase (Salmonella choleraesuis (strain SC-B67), UniProt Q5J463); test: Epi-absorbance-based counterscreen for selective VIM-2 inhibitors: dose response biochemical high throughput screening assay to identify inhibitors of TEM-1 serine-beta-lactamase.
[23] = luciferase reporter signal suppression in cells – H4 neuroglioma cells, luminescence, dose response (AID 1990); type: functional, cell-based
[24] = target: T9, Beta-lactamase (Pseudomonas aeruginosa, UniProt Q79MP6); test: inhibition of IMP-1 beta-lactamase activity – biochemical, epi-absorbance, selectivity assay for VIM-2 inhibitor project, dose response (AID 1920)
[25] = Luminescence Cell-Based Dose Response HTS to Identify Inhibitors of 5'UTR Stem-Loop Driven Prion Protein mRNA Translation in H4 Neuroglioblastoma Cells. [Related pubchem assays: 1827 (Project Summary), 1813 (Primary HTS)]; type: functional
[26] = alpha-synuclein stem-loop luciferase translation blockers – H4 neuroglioma cells, luminescence, confirmation (AID 1988); type: functional, cell-based
[27] = target: T9, Beta-lactamase; test: […] counterscreen for selective VIM-2 inhibitors: dose response biochemical high throughput screening assay to identify inhibitors of IMP-1 metallo-beta-lactamase.
[28] = target: DNA dC->dU-editing enzyme APOBEC-3A (Homo sapiens, UniProt P31941); test: A3A deaminase inhibition for selectivity – biochemical, dose response (AID 504722); type: functional
[29] = target: DNA dC->dU-editing enzyme APOBEC-3G (Homo sapiens, UniProt Q9HC16); test: Dose Response confirmation of small molecule APOBEC3G DNA Deaminase Inhibitors via a fluorescence-based single-stranded DNA deaminase assay. [Related pubchem assays (depositor defined):AID493012, AID493028]; type: functional
DNA dC->dU-editing enzyme APOBEC-3G, sequence (Q9HC16 whole entry): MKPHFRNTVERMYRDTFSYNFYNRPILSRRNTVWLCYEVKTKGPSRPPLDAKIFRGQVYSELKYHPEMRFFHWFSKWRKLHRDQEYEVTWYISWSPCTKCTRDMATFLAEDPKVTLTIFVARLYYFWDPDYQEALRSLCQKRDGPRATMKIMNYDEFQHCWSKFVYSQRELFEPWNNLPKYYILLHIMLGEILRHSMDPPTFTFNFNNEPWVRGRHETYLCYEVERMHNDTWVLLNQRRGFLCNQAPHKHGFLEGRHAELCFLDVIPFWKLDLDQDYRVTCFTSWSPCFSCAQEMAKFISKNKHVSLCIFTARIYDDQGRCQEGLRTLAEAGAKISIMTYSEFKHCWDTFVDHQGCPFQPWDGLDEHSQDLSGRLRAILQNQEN

T3 sequence (P63165 whole entry): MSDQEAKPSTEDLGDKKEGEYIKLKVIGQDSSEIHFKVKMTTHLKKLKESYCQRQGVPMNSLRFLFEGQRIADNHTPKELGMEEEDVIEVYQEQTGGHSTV
T9 sequence (Q79MP6 whole entry): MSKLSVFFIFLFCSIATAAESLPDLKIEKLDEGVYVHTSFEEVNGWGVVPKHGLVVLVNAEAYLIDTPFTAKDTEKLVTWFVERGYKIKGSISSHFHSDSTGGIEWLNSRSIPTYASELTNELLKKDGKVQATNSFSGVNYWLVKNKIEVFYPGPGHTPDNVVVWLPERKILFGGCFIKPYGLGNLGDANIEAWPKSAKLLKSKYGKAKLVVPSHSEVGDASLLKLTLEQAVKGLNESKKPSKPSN
T8 sequence (P08183 whole entry): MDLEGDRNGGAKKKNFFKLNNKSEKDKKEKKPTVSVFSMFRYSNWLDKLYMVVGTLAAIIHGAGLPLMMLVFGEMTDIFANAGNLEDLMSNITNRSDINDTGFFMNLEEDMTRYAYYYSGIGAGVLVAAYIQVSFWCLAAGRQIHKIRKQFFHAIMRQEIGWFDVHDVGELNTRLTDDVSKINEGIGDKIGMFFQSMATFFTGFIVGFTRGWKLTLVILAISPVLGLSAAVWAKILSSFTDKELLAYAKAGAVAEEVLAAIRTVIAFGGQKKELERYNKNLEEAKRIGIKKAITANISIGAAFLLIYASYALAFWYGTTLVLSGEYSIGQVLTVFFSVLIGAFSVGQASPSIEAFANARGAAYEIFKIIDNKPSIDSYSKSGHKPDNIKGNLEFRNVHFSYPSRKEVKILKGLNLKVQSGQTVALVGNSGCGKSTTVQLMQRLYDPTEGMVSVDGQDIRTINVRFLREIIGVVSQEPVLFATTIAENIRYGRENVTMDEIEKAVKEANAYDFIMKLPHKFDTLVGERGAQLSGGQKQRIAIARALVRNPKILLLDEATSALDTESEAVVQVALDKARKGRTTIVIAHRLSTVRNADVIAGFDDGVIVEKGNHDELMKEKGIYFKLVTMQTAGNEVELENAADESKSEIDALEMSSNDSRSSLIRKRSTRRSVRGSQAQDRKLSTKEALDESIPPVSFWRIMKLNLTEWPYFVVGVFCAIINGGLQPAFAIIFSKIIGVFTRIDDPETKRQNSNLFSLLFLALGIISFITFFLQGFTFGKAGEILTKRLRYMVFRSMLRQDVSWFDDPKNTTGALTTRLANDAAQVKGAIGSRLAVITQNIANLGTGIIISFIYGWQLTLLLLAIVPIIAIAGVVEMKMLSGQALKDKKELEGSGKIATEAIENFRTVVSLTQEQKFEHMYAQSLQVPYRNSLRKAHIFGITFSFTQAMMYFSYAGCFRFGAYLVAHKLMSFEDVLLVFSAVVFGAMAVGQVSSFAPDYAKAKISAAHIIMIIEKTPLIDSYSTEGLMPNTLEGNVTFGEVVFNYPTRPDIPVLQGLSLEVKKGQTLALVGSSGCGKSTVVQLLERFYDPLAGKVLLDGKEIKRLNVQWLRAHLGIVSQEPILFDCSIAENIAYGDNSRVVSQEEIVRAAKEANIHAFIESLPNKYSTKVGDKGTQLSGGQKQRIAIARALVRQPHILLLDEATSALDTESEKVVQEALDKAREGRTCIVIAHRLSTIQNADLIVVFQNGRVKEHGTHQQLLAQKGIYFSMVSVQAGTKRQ
Caspase-8, sequence (Q14790 217-374 limits assumed): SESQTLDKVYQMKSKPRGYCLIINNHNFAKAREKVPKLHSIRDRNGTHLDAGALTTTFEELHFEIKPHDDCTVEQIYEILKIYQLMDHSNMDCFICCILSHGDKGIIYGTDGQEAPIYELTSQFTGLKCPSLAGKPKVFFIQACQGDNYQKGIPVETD
Caspase-8, sequence (Q14790 385-479 limits assumed): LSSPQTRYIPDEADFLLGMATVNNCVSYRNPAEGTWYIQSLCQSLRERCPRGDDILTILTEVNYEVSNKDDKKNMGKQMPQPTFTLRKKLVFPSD
Hepatocyte nuclear factor 4-alpha, sequence (P41235 whole entry, the tested form may be a part): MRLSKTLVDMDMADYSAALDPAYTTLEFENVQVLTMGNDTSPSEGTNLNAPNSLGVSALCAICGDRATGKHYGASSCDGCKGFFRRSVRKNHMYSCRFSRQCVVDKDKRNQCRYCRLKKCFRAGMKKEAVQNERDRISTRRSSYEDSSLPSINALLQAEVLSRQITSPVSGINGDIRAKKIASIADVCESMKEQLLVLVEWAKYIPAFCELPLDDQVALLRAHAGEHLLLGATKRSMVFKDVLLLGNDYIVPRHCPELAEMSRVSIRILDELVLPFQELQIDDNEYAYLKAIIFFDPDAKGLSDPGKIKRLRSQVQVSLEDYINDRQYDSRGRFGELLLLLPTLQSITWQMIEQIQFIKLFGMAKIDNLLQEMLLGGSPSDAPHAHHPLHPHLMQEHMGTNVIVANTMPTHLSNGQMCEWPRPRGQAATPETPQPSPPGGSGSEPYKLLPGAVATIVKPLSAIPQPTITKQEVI
Caspase-7, sequence (P55210 24-198 limits assumed): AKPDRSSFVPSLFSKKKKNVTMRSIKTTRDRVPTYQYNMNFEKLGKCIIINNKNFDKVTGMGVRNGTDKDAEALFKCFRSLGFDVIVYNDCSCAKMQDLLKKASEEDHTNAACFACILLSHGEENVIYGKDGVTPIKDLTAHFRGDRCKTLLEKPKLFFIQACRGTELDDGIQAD
Caspase-7, sequence (P55210 207-303 limits assumed): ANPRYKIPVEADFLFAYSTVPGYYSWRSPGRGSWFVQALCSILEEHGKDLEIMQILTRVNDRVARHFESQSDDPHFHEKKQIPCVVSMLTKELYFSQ
DNA dC->dU-editing enzyme APOBEC-3A, sequence (P31941 whole entry): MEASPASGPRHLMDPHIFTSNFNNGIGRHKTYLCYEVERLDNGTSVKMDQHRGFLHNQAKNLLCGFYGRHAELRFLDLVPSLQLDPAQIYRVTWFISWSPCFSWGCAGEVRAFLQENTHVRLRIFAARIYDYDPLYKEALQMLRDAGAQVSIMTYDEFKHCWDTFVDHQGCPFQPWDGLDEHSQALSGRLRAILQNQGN
Arf-GAP with SH3 domain, ANK repeat and PH domain-containing protein 1, sequence (Q9ULH1 whole entry, the tested form may be a part): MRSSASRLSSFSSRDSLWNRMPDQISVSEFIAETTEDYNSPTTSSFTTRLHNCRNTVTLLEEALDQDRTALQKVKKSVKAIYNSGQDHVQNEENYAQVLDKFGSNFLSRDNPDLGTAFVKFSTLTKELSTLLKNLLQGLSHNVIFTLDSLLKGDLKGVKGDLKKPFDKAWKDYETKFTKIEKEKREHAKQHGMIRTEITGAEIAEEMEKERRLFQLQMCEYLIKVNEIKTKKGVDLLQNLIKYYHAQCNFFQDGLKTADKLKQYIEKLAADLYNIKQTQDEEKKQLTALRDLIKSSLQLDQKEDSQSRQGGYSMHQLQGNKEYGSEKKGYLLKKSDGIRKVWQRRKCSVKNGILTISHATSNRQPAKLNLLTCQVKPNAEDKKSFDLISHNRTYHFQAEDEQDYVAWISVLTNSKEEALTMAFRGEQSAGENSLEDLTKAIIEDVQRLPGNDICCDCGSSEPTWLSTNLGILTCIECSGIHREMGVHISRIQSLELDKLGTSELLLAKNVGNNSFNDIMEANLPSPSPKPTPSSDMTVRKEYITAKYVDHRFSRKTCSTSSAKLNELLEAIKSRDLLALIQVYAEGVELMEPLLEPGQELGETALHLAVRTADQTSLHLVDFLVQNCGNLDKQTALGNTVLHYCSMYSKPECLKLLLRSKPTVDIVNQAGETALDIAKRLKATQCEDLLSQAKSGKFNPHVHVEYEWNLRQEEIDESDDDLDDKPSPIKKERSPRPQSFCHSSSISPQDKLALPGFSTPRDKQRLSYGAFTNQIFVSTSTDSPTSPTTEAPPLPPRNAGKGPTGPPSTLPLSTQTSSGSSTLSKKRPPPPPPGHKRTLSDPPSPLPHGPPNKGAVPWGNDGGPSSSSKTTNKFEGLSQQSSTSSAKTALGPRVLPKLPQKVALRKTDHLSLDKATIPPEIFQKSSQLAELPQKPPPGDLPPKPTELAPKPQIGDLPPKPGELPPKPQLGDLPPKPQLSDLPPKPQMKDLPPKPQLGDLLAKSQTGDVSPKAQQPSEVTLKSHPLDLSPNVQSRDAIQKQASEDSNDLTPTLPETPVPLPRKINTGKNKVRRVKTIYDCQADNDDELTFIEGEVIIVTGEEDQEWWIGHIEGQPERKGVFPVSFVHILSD
Protein Wnt-3a, sequence (P27467 whole entry, the tested form may be a part): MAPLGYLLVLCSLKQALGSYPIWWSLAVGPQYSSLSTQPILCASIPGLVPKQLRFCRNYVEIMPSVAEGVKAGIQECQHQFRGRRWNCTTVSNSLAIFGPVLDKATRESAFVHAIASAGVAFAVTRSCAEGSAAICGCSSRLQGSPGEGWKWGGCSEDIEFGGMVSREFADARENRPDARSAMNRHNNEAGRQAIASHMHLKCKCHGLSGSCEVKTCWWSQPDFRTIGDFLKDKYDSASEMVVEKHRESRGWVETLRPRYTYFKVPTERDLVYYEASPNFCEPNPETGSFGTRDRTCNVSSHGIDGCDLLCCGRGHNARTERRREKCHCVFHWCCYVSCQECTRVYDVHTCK

C[C@@H]1CN([C@@H](C)CO)C(=O)Cc2cc(NS(=O)(=O)c3ccc(Cl)cc3)ccc2O[C@@H]1CN(C)Cc1ccc(Cl)c(Cl)c1
AC50 [1]: 5.1 µM (active)

COc1cc(OC)c2c(=O)cc(-c3ccccc3)oc2c1 [CHRYSIN DIMETHYL ETHER]
IC50 [2]: > 67.6 µM (inactive)
IC50 [3]: > 67.6 µM (inactive)

Cc1c(CCC(=O)NCCCN2CCCC2=O)c(=O)oc2cc(O)ccc12
AC50 [4]: 30.1 µM (active)

COc1cc(C)c2c(c1C=O)Oc1c(c(C)c(O)c3c1C(O)OC3=O)OC2=O (centres undefined) [STICTIC ACID]
IC50 [5]: 27.3 µM (active)
IC50 [6]: 71.2 µM (active)
IC50 [7]: > 66.6 µM (inactive)
IC50 [8]: 7.69 µM (active)
AC50 [9]: 817 nM (active)
AC50 [10]: 44.3 µM (active)
AC50 [11]: > 70 µM (inactive)

O=C(NC1CCCCC1)C(c1ccccc1)n1c(=O)c(-c2ccco2)nc2ccccc21 (centres undefined)
IC50 [12]: 817 nM (active)

CCn1cc(C(=O)O)c(=O)c2cc(F)c(N3CCN(C(=S)NC(=O)c4c(OC)cccc4OC)CC3)cc21
IC50 [13]: 14 µM (active)

O=C(/C=C/c1ccco1)Nc1ccc(-c2nc3ccccc3[nH]2)cc1
IC50 [14]: 14.6 µM (active)
IC50 [15]: 14 µM (inactive)

O=C(Nc1ccc(N2CCN(C(=O)c3ccccc3F)CC2)cc1)c1cncc(Br)c1
IC50 [16]: > 79 µM (inactive)
IC50 [17]: 6.77 µM (active)

COc1ccccc1S(=O)(=O)N1CC[C@@H]2[C@H](CO)Nc3ccc(-c4ccccc4)cc3[C@@H]21
AC50 [18]: 19.3 µM (active)
AC50 [19]: 16.5 µM (active)

O=C(c1cccnc1)N1CCN(c2cc(-c3ccccc3)nc3cc(-c4cccc(Cl)c4)nn23)CC1
EC50 [20]: 370 nM (active)
EC50 [21]: 520 nM (active)

Sc1nnc(-c2ccccc2)n1C1C=CCCC1 (centres undefined)
IC50 [22]: > 59.6 µM (inactive)
EC50 [23]: > 120 µM (not active)
IC50 [24]: > 59.6 µM (inactive)
EC50 [25]: 104 µM (active)
EC50 [26]: > 120 µM (not active)
IC50 [27]: > 59.6 µM (inactive)
IC50 [28]: > 100 µM (inactive)
IC50 [29]: 5.37 µM (active)
